Tests used:
[1] = Encapsulation of RNA by the nanoparticle composition (QUANT-IT RIBOGREEN RNA assay); assay type: physicochemical
Text: The efficiency of encapsulation of a therapeutic and/or prophylactic describes the amount of therapeutic and/or prophylactic that is encapsulated or otherwise associated with a nanoparticle composition after preparation, relative to the initial amount provided. The encapsulation efficiency is desirably high (e.g., close to 100%). The encapsulation efficiency may be measured, for example, by comparing the amount of therapeutic and/or prophylactic in a solution containing the nanoparticle composition before and after breaking up the nanoparticle composition with one or more organic solvents or detergents. Fluorescence may be used to measure the amount of free therapeutic and/or prophylactic (e.g., RNA) in a solution. For the nanoparticle compositions described herein, the encapsulation efficiency of a therapeutic and/or prophylactic may be at least 50%, for example 50%, 55%, 60%, 65%, 70%, 75%, 80%, 85%, 90%, 91%, 92%, 93%, 94%, 95%, 96%, 97%, 98%, 99%, or 100%. In some embodiments, the encapsulation efficiency may be at least 80%. In certain embodiments, the encapsulation efficiency may be at least 90%.
For nanoparticle compositions including an RNA, a QUANT-IT™ RIBOGREEN® RNA assay (Invitrogen Corporation Carlsbad, CA) can be used to evaluate the encapsulation of an RNA by the nanoparticle composition. The samples are diluted to a concentration of approximately […] in a TE buffer solution (10 mM Tris-HCl, 1 mM EDTA, pH 7.5). 50 μL of the diluted samples are transferred to a polystyrene 96 well plate and either 50 μL of TE buffer or 50 μL of a 2% Triton X-100 solution is added to the wells. The plate is incubated at a temperature of 37° C. for 15 minutes. The RIBOGREEN® reagent is diluted 1:100 in TE buffer, and 100 μL of this solution is added to each well. The fluorescence intensity can be measured using a fluorescence plate reader (Wallac Victor 1420 Multilablel Counter; Perkin Elmer, Waltham, MA) at an excitation wavelength of, for example, about 480 nm and an emission wavelength of, for example, about 520 nm. The fluorescence values of the reagent blank are subtracted from that of each of the samples and the percentage of free RNA is determined by dividing the fluorescence intensity of the intact sample (without addition of Triton X-100) by the fluorescence value of the disrupted sample (caused by the addition of Triton X-100).
Initial studies were performed to compare the delivery efficiency of nanoparticle compositions including various compounds according to Formula (I), (IA), (II), (IIa), (IIb), (IIc), (IId) or (IIe). The cationic lipid MC3 is a current standard in the art. Accordingly, the standard MC3 formulation including about 50 mol % MC3, about 10 mol % DSPC, about 38.5 mol % cholesterol, and about 1.5 mol % PEG-DMG was used as a basis for this study. Nanoparticle compositions including DSPC as a phospholipid, cholesterol as a structural lipid, PEG-DMG as a PEG lipid, an RNA, and a compound according to Formula (I), (IA), (II), (IIa), (IIb), (IIc), (IId) or (IIe) selected from Compounds 1-159, 168-170, and 173-175 were prepared according to or via methods similar to those described in Examples 1 and 2. The ratios of the lipids were 50:10:38.5:1.5 mol % for the lipid according to Formula (I), (IA), (II), (IIa), (IIb), (IIc), (IId) or (IIe):DSPC:cholesterol:PEG-DMG. The RNA used was an mRNA encoding G5 luciferase (Luc) or G5 hEPO. Tables 1A-1B summarize the content and characteristics of the formulations. […]

[2] = tested on: mice; assay: hEPO expression in mice after intravenous administration; assay type: in vivo; conditions: for hEPO expression (pg/ml) 3h / hEPO expression (pg/ml) 6 h / hEPO expression (pg/ml) 24 h: 0.5 mpk
Protocol: Sample formulations of nanoparticle compositions including different lipids are generally first evaluated according to Luc expression in vivo. The activity of several such compositions was further evaluated using an mRNA encoding hEPO. Nanoparticle compositions including Compounds 6, 18, 25, 30, 108-112, 60, and 122, or MC3 were prepared according to Example 2.
The expression of hEPO and cytokine induction in mice intravenously administered a nanoparticle composition at a dose of 0.5 mpk were measured at 3, 6, and 24 hours. […] The expression of hEPO in mice intramuscularly administered a nanoparticle composition from Table 1B at a dose of 0.01 mpk were measured at 3, 6, and 24 hours. […] (see also FIG. 9.)
Table 12 compares the nanoparticle compositions including compounds according to Formula (I), (IA), (II), (IIa), (IIb), (IIc), (IId) or (IIe) to the compositions including MC3 on the basis of expression and flux levels. […] Thus, these lipids may be useful in nanoparticle composition therapeutics. […]

[3] = tested on: non-human primates; assay: Tolerability in non-human primates (clinical chemistry, hematology, observations); assay type: in vivo, Cynomolgus monkeys
Protocol: The tolerability and efficacy of nanoparticle compositions to non-human primates was also investigated using a sample formulation including Compound 18. The formulation was prepared according to the standard MC3 formulation described above and included an hEPO mRNA. Primates were administered a single dose of 0.05 (Group 1), 0.3 (Group 2), or 1.0 (Group 3) mpk via intravenous infusion for 60 minutes. Three primates were administered each dose. Expression of hEPO was measured prior to dosing and at 2, 6, 24, 48, and 96 hours post-treatment (Table 26). Table 28 includes levels of indicators of complement activation, while Table 29 includes cytokine induction data.
In general, lower doses were better tolerated. High doses induced body temperature elevation and hunched posture, which is similar to the behavior observed for primates administered higher doses of MC3 formulations.

[4] = hEPO mRNA, (50:10:38.5:1.5) (Table 10)

SMILES	EE (%) ([1]; formulated with hEPO mRNA (Table 1B))	EE (%) [1, 4] [%]	EE (%) ([1]; nanoparticle composition 50:10:38.5:1.5 mol % (Table 1A))	hEPO expression (pg/ml) 3h [2] [pg/mL]	hEPO expression (pg/ml) 6 h [2] [pg/mL]	hEPO expression (pg/ml) 24 h [2] [pg/mL]	EE (%) ([1]; mRNA encoding anti-HA antibody (Table 33))	hEPO concentrations compared with MC3 formulations at each time point ([2]; 0.5 mpk, 3, 6 and 24 hours)	White blood cell counts ([3]; non-human primates, 0.05, 0.3 or 1.0 mpk)	reticulocyte counts on Day 5 ([3]; non-human primates, all groups)
CCCCCC=CCC=CCCCCCCCCC(CCCCCCCCC=CCC=CCCCCC)OC(=O)CCCN(C)C (centres unmarked) [MC3, heptatriaconta-6,9,28,31-tetraen-19-yl 4-(dimethylamino)butanoate, reference compound]	99.01	97.22	97.3	1.57e+06	1.83e+06	810000				
CCCCCCCCCOC(=O)CCCCCCCN(CCO)CCCCCCCC(=O)OC(CCCCCCCC)CCCCCCCC [Compound 18, Heptadecan-9-yl 8-((2-hydroxyethyl)(8-(nonyloxy)-8-oxooctyl)amino)octanoate]		97.34		3e+06	3.38e+06	1.8e+06	79.3	higher hEPO concentrations than MC3 formulations	slightly elevated in animals in the high dose group	marked increase
